Data: ChEMBL document CHEMBL3991601, “The target landscape of clinical kinase drugs” (Science, 2017)
Active and inactive are the calls of the source.

What was measured:
[1] = biological target: Mitogen-activated protein kinase 1 (Homo sapiens, UniProt P28482)
[2] = biological target: T1, Breakpoint cluster region protein (Homo sapiens, UniProt P11274)
T1 sequence (P11274 whole entry): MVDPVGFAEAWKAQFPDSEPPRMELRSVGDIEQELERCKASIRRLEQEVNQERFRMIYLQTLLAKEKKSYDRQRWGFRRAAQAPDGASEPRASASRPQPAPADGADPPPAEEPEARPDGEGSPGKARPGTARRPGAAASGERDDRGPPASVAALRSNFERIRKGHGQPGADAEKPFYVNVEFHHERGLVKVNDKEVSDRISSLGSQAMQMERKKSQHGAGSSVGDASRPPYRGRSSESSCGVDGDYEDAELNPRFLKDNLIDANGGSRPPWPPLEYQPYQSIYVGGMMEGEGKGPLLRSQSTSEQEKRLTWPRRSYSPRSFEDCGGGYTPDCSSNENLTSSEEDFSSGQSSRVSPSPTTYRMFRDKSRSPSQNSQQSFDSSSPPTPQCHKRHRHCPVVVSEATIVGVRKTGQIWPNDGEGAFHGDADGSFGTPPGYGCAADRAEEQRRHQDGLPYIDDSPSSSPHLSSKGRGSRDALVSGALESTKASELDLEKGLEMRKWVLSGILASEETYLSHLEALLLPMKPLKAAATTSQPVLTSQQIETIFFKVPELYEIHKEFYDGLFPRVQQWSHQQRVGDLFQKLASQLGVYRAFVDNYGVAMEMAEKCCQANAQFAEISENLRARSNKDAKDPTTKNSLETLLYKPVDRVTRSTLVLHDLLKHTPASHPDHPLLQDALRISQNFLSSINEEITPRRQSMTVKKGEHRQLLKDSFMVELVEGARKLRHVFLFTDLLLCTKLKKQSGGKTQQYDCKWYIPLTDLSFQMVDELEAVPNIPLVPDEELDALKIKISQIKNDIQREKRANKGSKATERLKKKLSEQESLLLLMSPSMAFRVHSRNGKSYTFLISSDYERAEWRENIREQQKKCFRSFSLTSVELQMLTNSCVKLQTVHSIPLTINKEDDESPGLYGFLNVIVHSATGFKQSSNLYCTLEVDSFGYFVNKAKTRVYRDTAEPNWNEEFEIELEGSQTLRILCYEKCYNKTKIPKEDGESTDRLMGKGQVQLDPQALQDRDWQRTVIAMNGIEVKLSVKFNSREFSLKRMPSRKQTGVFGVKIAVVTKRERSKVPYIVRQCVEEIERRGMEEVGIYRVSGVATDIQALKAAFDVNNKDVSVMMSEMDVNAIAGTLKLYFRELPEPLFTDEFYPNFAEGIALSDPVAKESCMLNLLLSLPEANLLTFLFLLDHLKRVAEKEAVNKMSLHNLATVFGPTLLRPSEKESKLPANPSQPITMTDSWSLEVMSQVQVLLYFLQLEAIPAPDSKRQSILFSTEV

[3] = biological target: Tyrosine-protein kinase Lyn (Homo sapiens, UniProt P07948)
Sequence of Tyrosine-protein kinase Lyn (P07948 whole entry): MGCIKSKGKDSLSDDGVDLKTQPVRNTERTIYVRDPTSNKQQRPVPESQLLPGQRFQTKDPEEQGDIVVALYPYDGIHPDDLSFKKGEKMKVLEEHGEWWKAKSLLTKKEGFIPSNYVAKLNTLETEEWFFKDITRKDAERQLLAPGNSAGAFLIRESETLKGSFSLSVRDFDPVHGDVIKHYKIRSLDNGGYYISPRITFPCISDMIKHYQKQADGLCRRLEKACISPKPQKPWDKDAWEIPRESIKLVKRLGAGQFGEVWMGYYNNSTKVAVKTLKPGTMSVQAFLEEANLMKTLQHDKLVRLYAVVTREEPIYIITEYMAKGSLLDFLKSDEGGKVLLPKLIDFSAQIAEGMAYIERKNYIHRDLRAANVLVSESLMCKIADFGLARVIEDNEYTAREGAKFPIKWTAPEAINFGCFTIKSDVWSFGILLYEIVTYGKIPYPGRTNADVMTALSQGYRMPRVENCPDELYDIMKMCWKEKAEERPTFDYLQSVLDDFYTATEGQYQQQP

Myosin-14 = Myosin-14 (Homo sapiens, UniProt Q7Z406)
Sequence of Myosin-14 (Q7Z406 whole entry): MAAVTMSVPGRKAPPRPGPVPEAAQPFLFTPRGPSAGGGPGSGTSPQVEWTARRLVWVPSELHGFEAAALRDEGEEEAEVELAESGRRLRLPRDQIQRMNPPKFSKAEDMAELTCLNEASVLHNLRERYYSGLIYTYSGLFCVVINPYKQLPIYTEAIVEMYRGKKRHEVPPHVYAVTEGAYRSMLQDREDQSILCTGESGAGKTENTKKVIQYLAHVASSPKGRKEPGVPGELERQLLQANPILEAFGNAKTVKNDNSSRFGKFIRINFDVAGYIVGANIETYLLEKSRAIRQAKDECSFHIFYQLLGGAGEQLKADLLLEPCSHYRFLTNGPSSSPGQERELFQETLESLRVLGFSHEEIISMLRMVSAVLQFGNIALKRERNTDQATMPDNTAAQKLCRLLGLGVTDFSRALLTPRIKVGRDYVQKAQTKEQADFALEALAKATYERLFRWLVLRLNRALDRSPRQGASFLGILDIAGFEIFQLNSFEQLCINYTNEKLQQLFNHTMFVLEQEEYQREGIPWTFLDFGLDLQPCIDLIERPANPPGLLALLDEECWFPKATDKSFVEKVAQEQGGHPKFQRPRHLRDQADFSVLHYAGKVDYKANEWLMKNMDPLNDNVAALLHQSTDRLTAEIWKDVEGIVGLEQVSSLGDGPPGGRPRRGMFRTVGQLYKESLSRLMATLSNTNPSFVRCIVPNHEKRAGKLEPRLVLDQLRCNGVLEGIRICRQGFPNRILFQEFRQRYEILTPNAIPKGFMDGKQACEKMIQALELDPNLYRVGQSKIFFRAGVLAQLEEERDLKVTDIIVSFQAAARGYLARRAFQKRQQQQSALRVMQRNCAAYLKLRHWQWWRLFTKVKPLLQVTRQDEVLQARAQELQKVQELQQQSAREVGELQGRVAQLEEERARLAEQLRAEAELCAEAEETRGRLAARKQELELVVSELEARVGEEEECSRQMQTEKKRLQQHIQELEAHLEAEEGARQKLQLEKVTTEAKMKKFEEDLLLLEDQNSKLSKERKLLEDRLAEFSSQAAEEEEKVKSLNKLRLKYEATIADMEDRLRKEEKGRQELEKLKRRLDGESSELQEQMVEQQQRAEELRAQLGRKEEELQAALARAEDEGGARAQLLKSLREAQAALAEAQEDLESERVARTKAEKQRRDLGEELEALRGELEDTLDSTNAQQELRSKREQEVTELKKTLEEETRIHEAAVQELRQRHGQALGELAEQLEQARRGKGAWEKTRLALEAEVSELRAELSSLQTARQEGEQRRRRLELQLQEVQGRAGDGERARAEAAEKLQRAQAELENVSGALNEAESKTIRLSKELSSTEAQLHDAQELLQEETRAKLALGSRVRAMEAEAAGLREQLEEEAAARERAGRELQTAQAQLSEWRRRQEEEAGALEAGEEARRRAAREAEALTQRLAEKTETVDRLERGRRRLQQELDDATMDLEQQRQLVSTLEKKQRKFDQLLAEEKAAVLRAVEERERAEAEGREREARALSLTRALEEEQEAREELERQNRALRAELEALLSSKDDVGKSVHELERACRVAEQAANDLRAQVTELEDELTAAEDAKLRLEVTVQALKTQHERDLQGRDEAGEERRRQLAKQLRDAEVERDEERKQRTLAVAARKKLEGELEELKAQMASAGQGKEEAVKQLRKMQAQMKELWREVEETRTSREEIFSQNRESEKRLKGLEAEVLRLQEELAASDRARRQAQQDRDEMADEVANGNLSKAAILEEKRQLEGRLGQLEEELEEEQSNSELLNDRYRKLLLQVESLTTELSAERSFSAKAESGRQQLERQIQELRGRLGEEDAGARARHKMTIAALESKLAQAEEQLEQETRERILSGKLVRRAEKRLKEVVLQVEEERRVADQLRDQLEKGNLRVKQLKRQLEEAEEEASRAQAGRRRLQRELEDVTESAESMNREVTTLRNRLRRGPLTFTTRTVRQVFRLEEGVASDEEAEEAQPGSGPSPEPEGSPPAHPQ

[4] = biological target: Tyrosine-protein kinase FRK (Homo sapiens, UniProt P42685)
Sequence of Tyrosine-protein kinase FRK (P42685 whole entry): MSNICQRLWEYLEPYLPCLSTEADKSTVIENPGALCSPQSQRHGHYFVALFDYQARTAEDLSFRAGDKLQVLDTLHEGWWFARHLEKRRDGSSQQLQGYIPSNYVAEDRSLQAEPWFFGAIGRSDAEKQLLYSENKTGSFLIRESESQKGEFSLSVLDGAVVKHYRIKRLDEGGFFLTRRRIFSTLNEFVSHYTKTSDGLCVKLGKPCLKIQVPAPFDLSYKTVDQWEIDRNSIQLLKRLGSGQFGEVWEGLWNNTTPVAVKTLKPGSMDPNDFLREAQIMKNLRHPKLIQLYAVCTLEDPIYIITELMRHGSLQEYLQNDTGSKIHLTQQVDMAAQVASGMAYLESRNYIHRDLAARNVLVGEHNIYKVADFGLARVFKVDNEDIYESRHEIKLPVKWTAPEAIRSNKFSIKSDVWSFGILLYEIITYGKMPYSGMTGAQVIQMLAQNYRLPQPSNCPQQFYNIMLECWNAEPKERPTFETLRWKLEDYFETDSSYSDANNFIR

[5] = biological target: NADH dehydrogenase [ubiquinone] 1 alpha subcomplex subunit 13 (Homo sapiens, UniProt Q9P0J0)
Sequence of NADH dehydrogenase [ubiquinone] 1 alpha subcomplex subunit 13 (Q9P0J0 whole entry, one chain of several): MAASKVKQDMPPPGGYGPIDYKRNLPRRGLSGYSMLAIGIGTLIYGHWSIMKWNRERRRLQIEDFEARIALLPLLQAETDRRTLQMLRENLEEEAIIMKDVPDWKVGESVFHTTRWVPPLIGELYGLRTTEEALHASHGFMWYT

[6] = biological target: T2, Interleukin-1 receptor-associated kinase 4 (Homo sapiens, UniProt Q9NWZ3)
T2 sequence (Q9NWZ3 whole entry): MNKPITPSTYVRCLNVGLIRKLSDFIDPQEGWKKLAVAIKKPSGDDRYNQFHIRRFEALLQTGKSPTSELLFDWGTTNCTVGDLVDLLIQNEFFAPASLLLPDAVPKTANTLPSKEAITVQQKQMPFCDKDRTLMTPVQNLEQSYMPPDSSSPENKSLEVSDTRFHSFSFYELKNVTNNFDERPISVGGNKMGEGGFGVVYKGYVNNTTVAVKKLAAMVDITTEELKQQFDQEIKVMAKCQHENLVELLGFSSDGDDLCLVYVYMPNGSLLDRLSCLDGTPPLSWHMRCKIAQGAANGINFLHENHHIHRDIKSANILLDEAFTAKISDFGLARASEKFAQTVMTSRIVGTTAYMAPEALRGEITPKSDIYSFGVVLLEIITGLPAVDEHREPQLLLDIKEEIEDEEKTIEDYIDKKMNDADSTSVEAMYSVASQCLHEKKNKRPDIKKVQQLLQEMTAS

[7] = biological target: T3, Glycogen phosphorylase, brain form (Homo sapiens, UniProt P11216)
T3 sequence (P11216 whole entry): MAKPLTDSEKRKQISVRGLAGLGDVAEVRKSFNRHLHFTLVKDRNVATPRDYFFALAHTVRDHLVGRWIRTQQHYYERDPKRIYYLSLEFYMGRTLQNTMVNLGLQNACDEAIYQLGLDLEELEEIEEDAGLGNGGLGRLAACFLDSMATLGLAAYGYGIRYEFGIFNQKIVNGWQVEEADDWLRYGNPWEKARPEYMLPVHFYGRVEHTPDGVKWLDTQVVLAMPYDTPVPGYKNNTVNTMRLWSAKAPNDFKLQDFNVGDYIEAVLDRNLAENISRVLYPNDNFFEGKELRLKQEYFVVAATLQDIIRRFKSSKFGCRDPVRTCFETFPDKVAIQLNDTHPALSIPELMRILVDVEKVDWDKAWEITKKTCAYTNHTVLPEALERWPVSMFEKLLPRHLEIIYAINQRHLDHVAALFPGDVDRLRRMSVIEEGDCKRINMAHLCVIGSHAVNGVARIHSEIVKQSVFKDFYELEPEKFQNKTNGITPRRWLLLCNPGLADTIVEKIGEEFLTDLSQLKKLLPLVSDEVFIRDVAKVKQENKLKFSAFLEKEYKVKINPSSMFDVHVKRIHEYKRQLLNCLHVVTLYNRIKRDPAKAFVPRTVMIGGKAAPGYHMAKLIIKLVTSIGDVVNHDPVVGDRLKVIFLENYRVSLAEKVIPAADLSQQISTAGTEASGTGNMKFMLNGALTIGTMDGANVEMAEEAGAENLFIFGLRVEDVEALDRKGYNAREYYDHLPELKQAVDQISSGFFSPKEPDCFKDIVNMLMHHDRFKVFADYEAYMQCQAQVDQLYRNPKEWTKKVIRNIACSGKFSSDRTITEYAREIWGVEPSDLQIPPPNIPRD

Obg-like ATPase 1 = Obg-like ATPase 1 (Homo sapiens, UniProt Q9NTK5)
Sequence of Obg-like ATPase 1 (Q9NTK5 whole entry, looked up): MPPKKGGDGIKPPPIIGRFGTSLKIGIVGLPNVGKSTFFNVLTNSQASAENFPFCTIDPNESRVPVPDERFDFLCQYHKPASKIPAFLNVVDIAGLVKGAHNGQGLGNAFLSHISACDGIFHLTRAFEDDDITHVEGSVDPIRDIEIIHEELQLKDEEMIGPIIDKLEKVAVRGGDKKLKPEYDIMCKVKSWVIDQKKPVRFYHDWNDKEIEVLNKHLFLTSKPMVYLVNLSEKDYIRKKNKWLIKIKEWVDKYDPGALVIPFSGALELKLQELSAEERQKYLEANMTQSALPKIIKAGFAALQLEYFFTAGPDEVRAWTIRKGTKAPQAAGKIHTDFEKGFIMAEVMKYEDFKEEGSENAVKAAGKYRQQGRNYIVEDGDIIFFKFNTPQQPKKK

Measured: Kd
Note: in the data inactive means no Kd found up to 30 µM.

Sequence of Mitogen-activated protein kinase 1 (P28482 whole entry): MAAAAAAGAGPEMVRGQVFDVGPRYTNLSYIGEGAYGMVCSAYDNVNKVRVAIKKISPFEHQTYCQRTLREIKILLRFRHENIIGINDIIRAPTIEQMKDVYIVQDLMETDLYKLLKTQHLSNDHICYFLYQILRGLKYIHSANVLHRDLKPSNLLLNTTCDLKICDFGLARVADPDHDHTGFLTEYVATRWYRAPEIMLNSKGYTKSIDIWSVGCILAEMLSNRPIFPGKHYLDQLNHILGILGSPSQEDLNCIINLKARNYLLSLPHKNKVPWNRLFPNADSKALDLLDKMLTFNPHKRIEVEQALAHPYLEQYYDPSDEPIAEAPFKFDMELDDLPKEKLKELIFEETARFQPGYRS

O=C(Nc1ccc(OC(F)(F)F)cc1)c1sccc1NCc1ccnc2ccccc12 [OSI-930]
inactive: [1] > 30 µM | [2] > 30 µM | [3] > 30 µM | Myosin-14 > 30 µM | [4] > 30 µM | [5] > 30 µM | [6] > 30 µM | [7] > 30 µM

COc1cccc(Nc2ncnn3ccc(CN4CC[C@@H](N)[C@H](O)C4)c23)c1 [BMS-690514]
active: [3] 0.887 µM | [4] 0.795 µM
inactive: [1] > 30 µM | [2] > 30 µM | Myosin-14 > 30 µM | [6] > 30 µM | [7] > 30 µM

COc1cc2c(Oc3ccc4[nH]c(C)cc4c3F)ncnc2cc1OCCCN1CCCC1 [CEDIRANIB]
active: [2] 2.31 µM
inactive: Obg-like ATPase 1 > 30 µM | Myosin-14 > 30 µM | [5] > 30 µM | [7] > 30 µM

CC[C@@](C)(Nc1ccnc(-c2c[nH]c3ncccc23)n1)C(=O)NCC(F)(F)F [DECERNOTINIB]
inactive: [1] > 30 µM | [2] > 30 µM | [3] > 30 µM | Myosin-14 > 30 µM | [4] > 30 µM | [5] > 30 µM | [6] > 30 µM | [7] > 30 µM

CC(C)(O)CC(=O)NCCn1ccc2ncnc(Nc3ccc(Oc4cccc(C(F)(F)F)c4)c(Cl)c3)c21 [TAK-285]
inactive: [1] > 30 µM | [2] > 30 µM | [3] > 30 µM | Myosin-14 > 30 µM | [4] > 30 µM | [5] > 30 µM | [6] > 30 µM | [7] > 30 µM

CC1(C)CNc2cc(NC(=O)c3cccnc3NCc3ccncc3)ccc21 [MOTESANIB]
inactive: [2] > 30 µM | Obg-like ATPase 1 > 30 µM | [5] > 30 µM | [7] > 30 µM

C=CCN(/C=C1/C(=O)O[C@H](COC)[C@@]2(C)C1=C(O)C(=O)C1=C2[C@H](OC(C)=O)C[C@]2(C)C(=O)CC[C@@H]12)CC=C [SONOLISIB]
inactive: [1] > 30 µM | [2] > 30 µM | [3] > 30 µM | [4] > 30 µM | [5] > 30 µM | [6] > 30 µM | [7] > 30 µM

O=C(O)c1ccc2c(c1)nc(Nc1cccc(Cl)c1)c1ccncc12 [SILMITASERTIB]
inactive: [1] > 30 µM | [2] > 30 µM | [3] > 30 µM | Myosin-14 > 30 µM | [4] > 30 µM | [5] > 30 µM | [6] > 30 µM | [7] > 30 µM

CN(C)C/C=C/C(=O)Nc1cc2c(Nc3ccc(F)c(Cl)c3)ncnc2cc1O[C@H]1CCOC1 [AFATINIB]
inactive: [2] > 30 µM | Obg-like ATPase 1 > 30 µM | Myosin-14 > 30 µM | [5] > 30 µM | [7] > 30 µM

O[C@H]1CC[C@H](Nc2ncc3nc(Nc4c(F)cc(F)cc4F)n([C@H]4CCOC4)c3n2)CC1 [TANZISERTIB]
active: [1] 1.23 µM
inactive: [2] > 30 µM | [3] > 30 µM | [4] > 30 µM | [5] > 30 µM | [6] > 30 µM | [7] > 30 µM

CCc1nc(C(N)=O)c(Nc2ccc(N3CCC(N4CCN(C)CC4)CC3)c(OC)c2)nc1NC1CCOCC1 [GILTERITINIB]
inactive: [1] > 30 µM | [2] > 30 µM | [3] > 30 µM | Myosin-14 > 30 µM | [4] > 30 µM | [5] > 30 µM | [7] > 30 µM

Cn1cnc2c(F)c(Nc3ccc(Br)cc3Cl)c(C(=O)NOCCO)cc21 [SELUMETINIB]
inactive: [2] > 30 µM | Obg-like ATPase 1 > 30 µM | Myosin-14 > 30 µM | [5] > 30 µM | [7] > 30 µM

FC(F)(F)c1ccc(CNc2ccc(Cc3c[nH]c4ncc(Cl)cc34)cn2)cn1 [PEXIDARTINIB]
inactive: [1] > 30 µM | [2] > 30 µM | [3] > 30 µM | [4] > 30 µM | [5] > 30 µM | [6] > 30 µM | [7] > 30 µM

COc1cc2c(N3CCN(C(=O)Nc4ccc(OC(C)C)cc4)CC3)ncnc2cc1OCCCN1CCCCC1 [TANDUTINIB]
inactive: Obg-like ATPase 1 > 30 µM | Myosin-14 > 30 µM | [5] > 30 µM | [7] > 30 µM

CCN1CCN(Cc2ccc(Nc3ncc(F)c(-c4cc(F)c5nc(C)n(C(C)C)c5c4)n3)nc2)CC1 [ABEMACICLIB]
inactive: [1] > 30 µM | [2] > 30 µM | [3] > 30 µM | Myosin-14 > 30 µM | [4] > 30 µM | [5] > 30 µM | [6] > 30 µM | [7] > 30 µM

C[C@@]1(C(=O)Nc2ccc(F)nc2)CCCN1c1nc(Nc2cc(C3CC3)n[nH]2)c2cccn2n1 [BMS-754807]
inactive: [2] > 30 µM | Obg-like ATPase 1 > 30 µM | [7] > 30 µM

CN1CCN(c2nc(C3=C(c4c[nH]c5ccccc45)C(=O)NC3=O)c3ccccc3n2)CC1 [SOTRASTAURIN]
inactive: [1] > 30 µM | [2] > 30 µM | [3] > 30 µM | Myosin-14 > 30 µM | [4] > 30 µM | [5] > 30 µM | [6] > 30 µM | [7] > 30 µM

O=c1[nH]c([C@@H]2CCCN2)nc2c1oc1ccc(Cl)cc12
inactive: [1] > 30 µM | [2] > 30 µM | [3] > 30 µM | Myosin-14 > 30 µM | [4] > 30 µM | [5] > 30 µM | [6] > 30 µM | [7] > 30 µM

C[C@]1(O)C[C@@H](c2nc(-c3ccc4ccc(-c5ccccc5)nc4c3)c3c(N)nccn32)C1 [LINSITINIB]
inactive: [2] > 30 µM | Myosin-14 > 30 µM | [5] > 30 µM | [7] > 30 µM
